Test system: human colon adenocarcinoma HT-29 cell line
Test: thermosensitizing or killing effect on HT-29 cells (cell count, ethidium bromide / fluorescein diacetate viability)
Assay type: cell-based
Settings: for Viability (%) / Total cells (x10^6) / Living cells (x10^6): mean ± S.D.; for Living cells (x10^6): viability % applied to total cells
Protocol: The thermosensitizing or killing effect of omeprazole in acidic solution and that of liposome formulations was tested on human colon adenocarcinoma HT-29 cell line (Istituto Zooprofilattico Ubertini, Brescia, Italy). The cells were incubated under standard conditions: 5% CO2, 37°C, in McCOY'S 5A medium (Sigma-Aldrich, Milan, Italy) at pH 7.4 with sodium bicarbonate, antibiotics and antifungals (penicillin 100 U/mL, streptomycin 100 U/mL, amphotericin B 0.25 µg/mL) and 10% foetal bovine serum. A trypsin solution with EDTA was employed to detach the cells from the culture plates. The experimental protocol is reported in the following scheme: [formula] In detail: • 1)-HT-29 cells were seeded in 6-well culture plates (Falcon) with a 10 cm^2 area at a 250,000 cell/well concentration and 5 mL medium as indicated above. • 2)-After 72 h plating, the culture medium, with initial buffered pH=7.4, was replaced with unbuffered medium (without sodium bicarbonate), and 12 wells were maintained at 37°C, while 12 wells were destined for thermal treatment. In each group, three wells were treated with omeprazole in acidic solution, three with LUVs with acidic core and three with LUVs loaded with omeprazole in acidic solution, according to the concentrations reported in the previous scheme. […] At the end of the thermal treatment the cells were brought back into the incubator at 37°C. • 4)-After 24 h, the following parameters were evaluated for all the wells: Total number of cells (living and dead). After detachment of the cell monolayer with trypsin and EDTA, the total number of cells (living + dead) in each well was determined using a Countess cell counting machine (Invitrogen, Milan, Italy). Cell viability (%). Cell viability was evaluated by incubation of a detached cell suspension with ethidium bromide and fluorescein diacetate (Sigma-Aldrich, Milan, Italy). The cells were analysed with a fluorescent optical microscope (Olympus BX-41, Tokyo, Japan) using the filter for fluorescein. The images were recorded with an F-view digital camera (Olympus) and processed with F-view software (Olympus). With this method, the living cells are stained green and the dead cells red, as fluorescein diacetate is internalized by living cells and hydrolysed by cytoplasm esterases into the corresponding fluorochrome, fluorescein, which emits an intense green fluorescence, whereas ethidium bromide only penetrates cells with altered membranes, binding to nucleic acids and producing a red fluorescence. The living and dead cells were counted by a semi-manual method. A minimum of three images per well were acquired in distinct areas, representative of the corresponding cell suspension. For the group maintained at 37°C, an average of 2,500 cells was counted for each treatment type (constituted by three wells representing the single treatment performed in triplicate). Since the number of cells decreases noticeably for the wells treated at 45°C for 2 h, the number of recorded images was increased (from 9 to 16), and 2,700 to 3,500 cells were counted for each treatment type (constituted by three wells representing the single treatment performed in triplicate). Living cell (green) and dead cell (red) counts were acquired by marking each cell and recording the resulting cell number with Image J software. The percentage viability of the cells counted for each sample was calculated as follows: Viability(%) = (No. of living cells)/(No. of living cells + No. of dead cells)⋅100 [formula] Total number of living cells. The endpoint of the study was the total number of tumour cells surviving the different treatments. This value was calculated for each well by applying the viability percentage obtained by semi-manual counting to the total number of cells measured by the cell-counting machine. Statistical analysis. The data were subjected to statistical analysis with the paired Student's t-test and one-way ANOVA (SigmaPlot 12.0, Systat Software Inc.) with a 95% significance level. […]

[1] = 37°C, 48 h incubation with treatment
[2] = 45°C for 2h after 24 h pre-incubation, evaluated 24 h after thermal treatment

Question: Which results are given for `COc1ccc2[nH]c([S+]([O-])Cc3ncc(C)c(OC)c3C)nc2c1` (centres unmarked) [B, omeprazole]?
Answer: Viability (%) [1]: 83.3 ± 2.4%; decrease in number of surviving tumour cells versus untreated control (37°C, 48 h of incubation): 25%; Total cells (x10^6) (37°C, living and dead cells per well, 48 h incubation with treatment): 1.83 ± 0.25 x10^6; Living cells (x10^6) [1]: 1.53 ± 0.22 x10^6; reduction in number of living cells compared to heating only (45°C for 2 h, 24 h after heat shock): 41%; Total cells (x10^6) [2]: 0.66 ± 0.27 x10^6; Viability (%) [2]: 61.5 ± 4.4%; Living cells (x10^6) [2]: 0.40 ± 0.10 x10^6

Source: EP3260120B1, “PHARMACOLOGICAL ADJUVANTS FOR THERMAL ABLATION OF CANCER” (Blasi, Paolo, priority 2016, dated 2017)
